In patent publication US7666901B2, “Analogs of 17-hydroxywortmannin as PI3K inhibitors” (Wyeth, priority 2004, dated 2010):
In brackets after ≈: the same amount, converted by molar mass.

Experiments:
Human TOR = target: T1, Human TOR (Homo sapiens, UniProt P42345); assay: Human TOR (mTOR) kinase assay, DELFIA format; assay type: biochemical
T1 construct: FLAG
Experimental: The PI3K/AKT/TOR pathway is critical for cell proliferation, growth, survival, and angiogensis. Accordingly, compounds of the present invention may also be useful to inhibit TOR activity. Similar in vivo and in vitro assays to those described above with reference to PI3K can be used to determine the minimum concentration of compound sufficient to inhibit TOR. A human TOR assay and a Rat1-IGF1 assay as described in Examples 67 and 68, respectively was performed with some embodiments of the invention. The results of these assays are shown below in Tables 1 and 2.
Human TOR assays (See Toral-Barza, et al. Biochem Biophys. Res. Commun. 2005 Jun. 24; 332(1):304-10) with purified enzyme are performed in 96-well plates by DELFIA format as follows. Enzymes are first diluted in kinase assay buffer (10 mM Hepes (pH 7.4), 50 mM NaCl, 50 mM b-glycerophosphate, 10 mM MnCl2, 0.5 mM DTT, 0.25 mM microcystin LR, and […] BSA). To each well, 12 mL of the diluted enzyme is mixed briefly with 0.5 mL test inhibitor or control vehicle dimethylsulfoxide (DMSO). The kinase reaction is initiated by adding 12.5 mL kinase assay buffer containing ATP and His6-S6K to give a final reaction volume of 25 mL containing 800 ng/mL FLAG-TOR, […] ATP and […] His6-S6K. The reaction plate is incubated for 2 hours (linear at 1-6 hours) at room temperature with gentle shaking and then terminated by adding 25 mL Stop buffer (20 mM Hepes (pH 7.4), 20 mM EDTA, 20 mM EGTA). The DELFIA detection of the phosphorylated (Thr-389) His6-S6K is performed at room temperature using a monoclonal anti-P(T389)-p70S6K antibody (1A5, Cell Signaling) labeled with Europium-N1-ITC (Eu) (10.4 Eu per antibody, PerkinElmer). The DELFIA Assay buffer and Enhancement solution can be purchased from PerkinElmer. 45 mL of the terminated kinase reaction mixture is transferred to a MaxiSorp plate (Nunc) containing 55 mL PBS. The His6-S6K is allowed to attach for 2 hours after which the wells are aspirated and washed once with PBS. 100 mL of DELFIA Assay buffer with 40 ng/mL Eu-P(T389)-S6K antibody is added. The antibody binding is continued for 1 hour with gentle agitation. The wells are then aspirated and washed 4 times with PBS containing 0.05% Tween-20 (PBST). […] of DELFIA Enhancement solution is added to each well and the plates are read in a PerkinElmer Victor model plate reader. Data obtained is used to calculate enzymatic activity and enzyme inhibition by potential inhibitors.

[1] = system: MDA468 (human breast cancer cell); assay: Cell proliferation (MTS) assay, MDA468; assay type: cell-based; conditions: Homo sapiens, 72 h, three days treatment
Experimental: (§1) Results of cell proliferation assays for exemplary compounds are shown below in Tables 1 and 2. Cell lines LNCaP (human prostate carcinoma), MDA468 (human breast cancer cell), MDA435 (human breast adenocarcinoma), and DU145 (human prostate carcinoma[…]) were purchased from American Type Culture Collection (ATCC) (Rockville, Md.). Cells were cultured in RPMI Medium 1640 containing 10% fetal bovine serum (FBS) in a 37° C. incubator containing 5% CO2. All cell culture reagents were purchased from Gibco-BRL (Grand Island, N.Y.). Cells were plated in 96-well culture plates at about 3000 cells per well. One day following plating, compounds or vehicle controls (buffer only) were added to cells. Proliferation assays were performed three days post initiation of treatment.
(§2) For a non-radioactive cell proliferation assay, viable cell densities are determined by measuring metabolic conversion (by viable cells) of the dye MTS tatrazolium dye, a cell proliferation assay known by one of skill in the art (MTS assay), a previously established cell proliferation assay. The assay is performed using an assay kit (Promega Corp., Madison, Wis.). The assay plates are incubated for 1-2 hours, and the results are read in a 96-well format plate reader by measuring absorbance at 490 nm. Effect of each compound is calculated as a percentage of control cell growth obtained from vehicle-treated cells grown in the same plate.

[2] = system: phosphor-AKT (S473) in Rat1 cells; assay: Rat1-IGF1 assay (IGF-1 induced phospho-AKT immunoblot); assay type: cell-based, rat; conditions: Rattus norvegicus
Experimental: Rat1 cells are plated in 6-well culture plates and serum-starved for 24 hours. Serum-starved cells are treated either with control vehicle or with various concentrations of 17-HWT for 2 hours, stimulated by IGF-1 (100 ng/mL) for 30 minutes. Total cellular lysates are prepared using NuPAGE-LDS sample buffer (Invitrogen), sonicated and then clarified by centrifugation. Equal amounts of proteins are subject to immunoblotting analysis using NuPAGE electrophoresis system and probed with phosphor-AKT (S473), total AKT antibodies (Signaling Technology).

[3] = system: DU145 (human prostate carcinoma/lymphocytic leukemia); assay: Cell proliferation (MTS) assay, DU145; assay type: cell-based; conditions: Homo sapiens, DU-145, 72 h, three days treatment
Experimental: as §1, §2

[4] = system: LNCaP (human prostate carcinoma); assay: Cell proliferation (MTS) assay, LNCaP; assay type: cell-based; conditions: Homo sapiens, LNCaP, 72 h, three days treatment
Experimental: as §1, §2

[5] = system: MDA435 (human breast adenocarcinoma); assay: Cell proliferation (MTS) assay, MDA435; assay type: cell-based; conditions: Homo sapiens, MDA435, 72 h, three days treatment
Experimental: as §1, §2

PI3K = system: T2, PI3K; assay: Fluorescence polarization assay for PI3K; assay type: biochemical; conditions: Table 2
T2 construct: PI3K FP IC50
Experimental: This assay is used to determine the IC50 of compounds of the present invention as it identifies inhibitors of PI3 kinase by measuring inhibition.
The assay is run by placing 5 μL of diluted enzyme per well, then 5 μL of diluted compound (or 9.5 μL enzyme then 0.5 μL compound in DMSO) is added and mixed. Then, 10 μL substrate is added to start the reaction. The samples are incubated 30-60 minutes, then the reaction is stopped by adding 20 μL stop/detector mix.
PI3K is diluted with reaction buffer (e.g., 5 μL or 7.5 μL PI3K into 620 μL reaction buffer), and 5 μL of diluted enzyme is used per well. 5 μL reaction buffer or drug diluted in buffer (e.g., 4 μL/100 so final DMSO is 1% in reaction) is added to each. The samples are mixed by pipetting up and down. Alternatively, the enzyme can be diluted to 1215 μL. In this case 9.8 μL is added per well and 0.2 μL compound is added in DMSO.
To prepare 1 mL of substrate solution, 955 μL reaction buffer, 40 μL PIP2, and 2.5 μL ATP are mixed. 10 μL of substrate is added to each well to start the reaction.
Stop/detector mix is prepared by mixing 4 μL Red detector and 1.6 μL or 2.0 μL GST-GRP with 1 mL Stop buffer, which results in 10 nM probe and 70 nM GST-GRP). 20 μL of the stop/detector mix is added to each well to stop the reaction. The plates are read after 30-90 minutes keeping the red probe solutions dark.
For the zero time point, stop/detector mix is added to the enzyme just before adding substrate. For an extra control, stop/detector mix is added to buffer (no enzyme) and substrate or to just buffer (no substrate).
The recommended reaction has 0.06 μL per 20 μL (0.015 μg/20 μL) or 0.01125 μg/15 μL or 0.75 μg/mL.
Plates are read on machines with filters for Tamra. The units are mP with no enzyme controls reading app 190-220 mP units. Fully active enzyme reduces fluorescence polarization down to 70-100 mP after 30 minutes. An active cpd raises the mP values halfway to control or to 120-150 mP units.

Compound | IC50 (Human TOR; Table 1) [nM] | IC50 ([1]; Table 1) [µg/mL] | IC50 ([2]; Table 1) [µg/mL] | IC50 ([3]; Table 1) [µg/mL] | IC50 ([4]; Table 1) [µg/mL] | IC50 ([5]; Table 1) [µg/mL] | IC50 (Human TOR; Table 2) [nM] | IC50 ([3]; Table 2) [µg/mL] | IC50 ([5]; Table 2) [µg/mL] | IC50 ([1]; Table 2) [µg/mL] | IC50 ([4]; Table 2) [µg/mL] | IC50 (PI3K) [nM] | IC50 ([2]; Table 2) [µg/mL]
COC[C@H]1OC(=O)/C(=C/N(C)C2CCCCC2)C2=C(O)C(=O)C3=C([C@H](OC(C)=O)C[C@@]4(C)C3CC[C@@H]4O)[C@]21C (stereo partly drawn) [Compound 9, (1E,4S,4aR,5R,6aS,7S)-1-{[cyclohexyl(methyl)amino]methylene}-7,11-dihydroxy-4-(methoxymethyl)-4a,6a-dimethyl-2,10-dioxo-1,2,4,4a,5,6,6a,7,8,9,9a,10-dodecahydroindeno[4,5-h]isochromen-5-yl acetate] | 86500 | 10 | > 0.1 | 13 | 9.5 | 15 | – | – | – | – | – | – | –
COC[C@H]1OC(=O)/C(=C/N2CCc3ccccc3C2)C2=C(O)C(=O)C3=C([C@H](OC(C)=O)C[C@@]4(C)C3CC[C@@H]4O)[C@]21C (stereo partly drawn) [Compound 12, (1E,4S,4aR,5R,6aS,7S)-1-(3,4-dihydroisoquinolin-2(1H)-ylmethylene)-7,11-dihydroxy-4-(methoxymethyl)-4a,6a-dimethyl-2,10-dioxo-1,2,4,4a,5,6,6a,7,8,9,9a,10-dodecahydroindeno[4,5-h]isochromen-5-yl acetate] | 3190 | 6 | 0.1 | > 15 | 2.8 | > 15 | – | – | – | – | – | – | –
COC[C@H]1OC(=O)/C(=C/N2CCC(c3ccccc3)CC2)C2=C(O)C(=O)C3=C([C@H](OC(C)=O)C[C@@]4(C)C3CC[C@@H]4O)[C@]21C (stereo partly drawn) [Compound 15, (1E,4S,4aR,5R,6aS,7S)-7,11-dihydroxy-4-(methoxymethyl)-4a,6a-dimethyl-2,10-dioxo-1-[(4-phenylpiperidin-1-yl)methylene]-1,2,4,4a,5,6,6a,7,8,9,9a,10-dodecahydroindeno[4,5-h]isochromen-5-yl acetate] | 2450 | 2.3 | 0.02 | 15 | 0.9 | > 15 | – | – | – | – | – | – | –
CCN(/C=C1/C(=O)O[C@H](COC)[C@@]2(C)C1=C(O)C(=O)C1=C2[C@H](O)C[C@]2(C)[C@@H](O)CC[C@@H]12)CC [Compound 50, (1E,4S,4aR,5R,6aS,7S,9aR)-1-[(diethylamino)methylene]-5,7,11-trihydroxy-4-(methoxymethyl)-4a,6a-dimethyl-4a,5,6,6a,7,8,9,9a-octahydroindeno[4,5-h]isochromene-2,10(1H,4H)-dione] | – | – | – | – | – | – | – | – | – | 2.5 (≈ 5.42 µM) | 0.25 (≈ 0.542 µM) | 7580 | > 0.1

Now from value to compound, other results behind:

IC50 (Human TOR; Table 1) [nM] | IC50 ([1]; Table 1) [µg/mL] | IC50 ([2]; Table 1) [µg/mL] | IC50 ([3]; Table 1) [µg/mL] | IC50 ([4]; Table 1) [µg/mL] | IC50 ([5]; Table 1) [µg/mL] | IC50 (Human TOR; Table 2) [nM] | IC50 ([3]; Table 2) [µg/mL] | IC50 ([5]; Table 2) [µg/mL] | Compound | IC50 ([1]; Table 2) [µg/mL] | IC50 ([4]; Table 2) [µg/mL] | IC50 (PI3K) [nM] | IC50 ([2]; Table 2) [µg/mL]
890 | 1.8 | 0.02 | 15 | 1 | > 15 | – | – | – | COC[C@H]1OC(=O)/C(=C/N2CCN(Cc3ccccc3)CC2)C2=C(O)C(=O)C3=C([C@H](OC(C)=O)C[C@@]4(C)C3CC[C@@H]4O)[C@]21C (stereo partly drawn) [Compound 10, (1E,4S,4aR,5R,6aS,7S)-1-[(4-benzylpiperazin-1-yl)methylene]-7,11-dihydroxy-4-(methoxymethyl)-4a,6a-dimethyl-2,10-dioxo-1,2,4,4a,5,6,6a,7,8,9,9a,10-dodecahydroindeno[4,5-h]isochromen-5-yl acetate] | – | – | – | –
1900 | 1.8 | 0.02 | 15 | 0.8 | > 15 | – | – | – | COC[C@H]1OC(=O)/C(=C/N2CCCCC2)C2=C(O)C(=O)C3=C([C@H](OC(C)=O)C[C@@]4(C)C3CC[C@@H]4O)[C@]21C (stereo partly drawn) [Compound 11, (1E,4S,4aR,5R,6aS,7S)-7,11-dihydroxy-4-(methoxymethyl)-4a,6a-dimethyl-2,10-dioxo-1-(piperidin-1-ylmethylene)-1,2,4,4a,5,6,6a,7,8,9,9a,10-dodecahydroindeno[4,5-h]isochromen-5-yl acetate] | – | – | – | –
607 | 2 | 0.05 | 15 | 0.8 | > 15 | 776 | 17 | 13 | COC[C@H]1OC(=O)/C(=C/N2CCN(c3ccccc3)CC2)C2=C(O)C(=O)C3=C([C@H](OC(C)=O)C[C@@]4(C)C3CC[C@@H]4O)[C@]21C (stereo partly drawn) [Compound 13, (1E,4S,4aR,5R,6aS,7S)-7,11-dihydroxy-4-(methoxymethyl)-4a,6a-dimethyl-2,10-dioxo-1-[(4-phenylpiperazin-1-yl)methylene]-1,2,4,4a,5,6,6a,7,8,9,9a,10-dodecahydroindeno[4,5-h]isochromen-5-yl acetate] | 3.5 | 0.33 | – | –
829 | 2 | 0.02 | 15 | 0.58 | > 15 | – | – | – | COC[C@H]1OC(=O)/C(=C/N2CCN(C)CC2)C2=C(O)C(=O)C3=C([C@H](OC(C)=O)C[C@@]4(C)C3CC[C@@H]4O)[C@]21C (stereo partly drawn) [Compound 14, (1E,4S,4aR,5R,6aS,7S)-7,11-dihydroxy-4-(methoxymethyl)-4a,6a-dimethyl-1-[(4-methylpiperazin-1-yl)methylene]-2,10-dioxo-1,2,4,4a,5,6,6a,7,8,9,9a,10-dodecahydroindeno[4,5-h]isochromen-5-yl acetate] | – | – | – | –
